ChEMBL document CHEMBL1201862, “PubChem BioAssay data set” (2004)
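How tested: cells in 96-well plates exposed to compound for 48 hours at five concentrations. GI50 = concentration required for 50% inhibition of growth.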 Active and inactive are the calls of the source. Cut-off read from the data, not from the text of the source: active = GI50 up to about 1.1 µM and inactive = higher.

Key:
Test in all cases: NCI anticancer screen, dose series, 48 h
786-0 = test system: 786-0
A498 = test system: A498
A549 = test system: A549
ACHN = test system: ACHN
CAKI-1 = test system: CAKI-1
CCRF-CEM = test system: CCRF-CEM
COLO 205 = test system: COLO 205
DMS-273 = test system: DMS-273
EKVX = test system: EKVX
HCC 2998 = test system: HCC 2998
HCT-116 = test system: HCT-116
HCT-15 = test system: HCT-15
HL-60 = test system: HL-60
HOP-18 = test system: HOP-18
HOP-62 = test system: HOP-62
HOP-92 = test system: HOP-92
HT-29 = test system: HT-29
IGROV-1 = test system: IGROV-1
K562 = test system: K562
KM-20L2 = test system: KM-20L2
KM12 = test system: KM12
LOX IMVI = test system: LOX IMVI
LXFL 529 = test system: LXFL 529
M14 = test system: M14
MOLT-4 = test system: MOLT-4
Malme-3M = test system: Malme-3M
NCI-H226 = test system: NCI-H226
NCI-H23 = test system: NCI-H23
NCI-H460 = test system: NCI-H460
NCI-H522 = test system: NCI-H522
OVCAR-3 = test system: OVCAR-3
OVCAR-4 = test system: OVCAR-4
OVCAR-5 = test system: OVCAR-5
OVCAR-8 = test system: OVCAR-8
RPMI-8226 = test system: RPMI-8226
RXF 393 = test system: RXF 393
RXF 631 = test system: RXF 631
SF-268 = test system: SF-268
SF-295 = test system: SF-295
SF-539 = test system: SF-539
SK-MEL-28 = test system: SK-MEL-28
SK-MEL-2 = test system: SK-MEL-2
SK-MEL-5 = test system: SK-MEL-5
SK-OV-3 = test system: SK-OV-3
SN12C = test system: SN12C
SNB-19 = test system: SNB-19
SNB-75 = test system: SNB-75
SNB-78 = test system: SNB-78
SR = test system: SR
SW-620 = test system: SW-620
TK-10 = test system: TK-10
U-251 = test system: U-251
UACC-257 = test system: UACC-257
UACC-62 = test system: UACC-62
UO-31 = test system: UO-31
DLD-1 = test system: DLD-1
DMS-114 = test system: DMS-114
M19-MEL = test system: M19-MEL
XF498 = test system: XF498

Measured: GI50

COC(=O)CCC(=O)C(CC(=O)OC)C(=O)CCC(=O)NCCc1ccccc1 (configuration not stated)
inactive: 786-0 > 100 µM | A498 > 100 µM | A549 > 100 µM | ACHN > 100 µM | CAKI-1 > 100 µM | CCRF-CEM > 100 µM | COLO 205 > 100 µM | DMS-273 > 100 µM | EKVX > 100 µM | HCC 2998 > 100 µM | HCT-116 > 100 µM | HL-60 > 100 µM | HOP-18 > 100 µM | HOP-62 > 100 µM | HOP-92 > 100 µM | HT-29 > 100 µM | IGROV-1 > 100 µM | K562 > 100 µM | KM-20L2 > 100 µM | KM12 > 100 µM | LOX IMVI > 100 µM | LXFL 529 > 100 µM | M14 > 100 µM | MOLT-4 > 100 µM | Malme-3M > 100 µM | NCI-H226 > 100 µM | NCI-H23 > 100 µM | NCI-H460 > 100 µM | NCI-H522 > 100 µM | OVCAR-3 > 100 µM | OVCAR-4 > 100 µM | OVCAR-5 > 100 µM | OVCAR-8 > 100 µM | RPMI-8226 > 100 µM | RXF 393 > 100 µM | RXF 631 > 100 µM | SF-268 > 100 µM | SF-295 > 100 µM | SF-539 > 100 µM | SK-MEL-28 > 100 µM | SK-MEL-2 > 100 µM | SK-MEL-5 > 100 µM | SK-OV-3 > 100 µM | SN12C > 100 µM | SNB-19 > 100 µM | SNB-75 > 100 µM | SNB-78 > 100 µM | SR > 100 µM | SW-620 > 100 µM | TK-10 > 100 µM | U-251 > 100 µM | UACC-257 > 100 µM | UACC-62 > 100 µM | UO-31 > 100 µM
> 100 µM: HCT-15

CC1(C)C2=CCCC(=O)[C@@]2(C)CC[C@@H]1O
inactive: 786-0 > 100 µM | A549 > 100 µM | ACHN > 100 µM | CAKI-1 > 100 µM | CCRF-CEM > 100 µM | COLO 205 > 100 µM | DLD-1 > 100 µM | DMS-114 > 100 µM | DMS-273 > 100 µM | EKVX > 100 µM | HCC 2998 > 100 µM | HCT-116 > 100 µM | HL-60 > 100 µM | HOP-18 > 100 µM | HOP-62 > 100 µM | HOP-92 > 100 µM | HT-29 > 100 µM | IGROV-1 > 100 µM | K562 > 100 µM | KM-20L2 > 100 µM | KM12 > 100 µM | LOX IMVI > 100 µM | LXFL 529 > 100 µM | M14 > 100 µM | M19-MEL > 100 µM | MOLT-4 > 100 µM | NCI-H226 > 100 µM | NCI-H23 > 100 µM | NCI-H460 > 100 µM | NCI-H522 > 100 µM | OVCAR-3 > 100 µM | OVCAR-4 > 100 µM | OVCAR-5 > 100 µM | OVCAR-8 > 100 µM | RPMI-8226 > 100 µM | RXF 393 > 100 µM | SF-268 > 100 µM | SF-295 > 100 µM | SF-539 > 100 µM | SK-MEL-28 > 100 µM | SK-MEL-2 5.97 µM | SK-MEL-5 > 100 µM | SK-OV-3 > 100 µM | SN12C > 100 µM | SNB-19 > 100 µM | SNB-75 > 100 µM | SNB-78 > 100 µM | SR > 100 µM | SW-620 > 100 µM | TK-10 > 100 µM | U-251 > 100 µM | UACC-257 > 100 µM | UACC-62 > 100 µM | UO-31 > 100 µM | XF498 > 100 µM

N#CCCN(CCC#N)c1ccc(/C=C(\NC(=O)c2cc([N+](=O)[O-])ccc2Cl)C(=O)Nc2ccccc2)cc1
4.55 µM: HCT-15
inactive: A549 > 100 µM | ACHN 12.2 µM | CAKI-1 62.1 µM | CCRF-CEM 5.87 µM | COLO 205 67.9 µM | DLD-1 18.5 µM | DMS-114 55 µM | DMS-273 54.2 µM | EKVX > 100 µM | HCT-116 78.7 µM | HOP-18 > 100 µM | HOP-62 45.2 µM | HOP-92 > 100 µM | IGROV-1 > 100 µM | K562 6.82 µM | KM-20L2 > 100 µM | KM12 > 100 µM | LOX IMVI 21.4 µM | LXFL 529 10.5 µM | M19-MEL > 100 µM | MOLT-4 32.2 µM | NCI-H226 64.9 µM | NCI-H23 > 100 µM | NCI-H522 44.2 µM | OVCAR-3 > 100 µM | OVCAR-4 > 100 µM | OVCAR-5 99.8 µM | OVCAR-8 83.9 µM | RPMI-8226 > 100 µM | RXF 393 > 100 µM | SF-268 30.8 µM | SF-295 64.6 µM | SF-539 49.7 µM | SK-MEL-28 > 100 µM | SK-MEL-2 > 100 µM | SK-MEL-5 > 100 µM | SK-OV-3 > 100 µM | SN12C > 100 µM | SNB-19 > 100 µM | SNB-78 > 100 µM | SR 36.3 µM | TK-10 48 µM | U-251 > 100 µM | UACC-62 4.52 µM | UO-31 > 100 µM | XF498 > 100 µM
